# According to ChEMBL document CHEMBL3879912, “4-alkoxy/aralkoxy-5-substituted-pyrrolopyrimidine compounds as TAK1 inhibitors in disease treatment” (2014):
# Target: TAK1/TAB1 (Homo sapiens, UniProt O43318)
# Assay: Inhibition of kinase tracer-236 binding to full length recombinant human His-tagged TAK1-TAB1 expressed in baculovirus by FRET assay
# TAK1/TAB1, sequence (Q15750 whole entry): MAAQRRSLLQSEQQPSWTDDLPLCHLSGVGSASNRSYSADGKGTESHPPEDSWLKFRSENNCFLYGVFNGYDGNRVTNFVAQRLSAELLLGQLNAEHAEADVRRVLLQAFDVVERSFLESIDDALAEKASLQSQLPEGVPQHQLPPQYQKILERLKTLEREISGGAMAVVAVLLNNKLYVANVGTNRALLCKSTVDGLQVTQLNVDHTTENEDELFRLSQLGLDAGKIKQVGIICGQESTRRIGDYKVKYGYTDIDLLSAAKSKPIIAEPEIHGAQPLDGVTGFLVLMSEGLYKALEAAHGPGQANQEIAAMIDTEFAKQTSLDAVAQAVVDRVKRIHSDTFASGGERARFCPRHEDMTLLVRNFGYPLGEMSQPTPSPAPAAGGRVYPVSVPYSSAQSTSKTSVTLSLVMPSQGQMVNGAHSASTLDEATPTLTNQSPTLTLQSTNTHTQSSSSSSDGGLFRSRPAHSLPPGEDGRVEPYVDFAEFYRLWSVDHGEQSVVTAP
# TAK1/TAB1, sequence (O43318 whole entry): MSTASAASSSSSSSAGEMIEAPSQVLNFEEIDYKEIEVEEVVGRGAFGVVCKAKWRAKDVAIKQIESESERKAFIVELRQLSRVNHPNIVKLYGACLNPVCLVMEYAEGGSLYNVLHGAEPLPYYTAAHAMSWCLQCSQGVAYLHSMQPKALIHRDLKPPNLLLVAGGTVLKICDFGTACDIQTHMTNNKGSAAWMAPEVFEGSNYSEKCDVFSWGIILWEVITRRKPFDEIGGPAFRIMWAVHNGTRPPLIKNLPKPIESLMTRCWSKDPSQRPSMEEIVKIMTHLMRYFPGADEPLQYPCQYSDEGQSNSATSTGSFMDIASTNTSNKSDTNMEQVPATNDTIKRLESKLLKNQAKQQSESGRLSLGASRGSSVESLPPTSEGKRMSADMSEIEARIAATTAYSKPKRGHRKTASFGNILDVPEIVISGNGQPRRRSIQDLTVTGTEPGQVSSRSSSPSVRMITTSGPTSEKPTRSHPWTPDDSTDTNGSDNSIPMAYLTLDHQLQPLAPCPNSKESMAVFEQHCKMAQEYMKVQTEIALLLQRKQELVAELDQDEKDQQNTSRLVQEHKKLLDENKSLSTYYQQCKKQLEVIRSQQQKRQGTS
row,SMILES,IC50 [nM]
1,NC(=O)/C=C/c1c[nH]c2ncnc(OCc3cccc(F)c3)c12,51
2,CC(=O)c1c[nH]c2ncnc(OCC(C)C)c12,1700

# More lines, now with the values ahead:
row,IC50 [nM],SMILES
1,330,N#C/C=C/c1c[nH]c2ncnc(OCc3ccccc3)c12
2,7,CC(C)COc1ncnc2[nH]cc(C#CC(N)=O)c12
3,430,COC(=O)/C(C)=C/c1c[nH]c2ncnc(OCC(C)C)c12
